Assay results: patent US11718604B2, “4-amino-6-(1,3-benzodioxole)picolinates and their use as herbicides” (Dow AgroSciences LLC, priority 2018, dated 2023)

Key:
Type in all cases: in vivo
[1] = system: ABUTH: velvetleaf (Abutilon theophrasti); assay: Post-emergent herbicidal test, velvetleaf; conditions: post-emergence, 336 h, 14 days after application, read-out: Visual Growth Reduction (%) 14 Days After Application ABUTH; for pest or weed control at 17.5 g/ha: 17.5 g ai/ha; for pest or weed control at 35 g/ha: 35 g ai/ha; for pest or weed control at 70 g/ha: 70 g ai/ha; for pest or weed control at 140 g/ha: 140 g ai/ha
In short: (§1)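 Scores reflect visual injury (0–100%) at 14 d post-spray on young plants treated at the 1st/2nd true leaf stage. Greenhouse held at about 23-29° C day and 22-28° C night; spray volume 187 L/ha, with solvent-blank controls.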

[2] = system: BRSNN: oilseed rape, canola (Brassica napus); assay: Post-emergent herbicidal test, oilseed rape; conditions: post-emergence, 336 h, 14 days after application, read-out: Visual Growth Reduction (%) 14 Days After Application BRSNN; for pest or weed control at 17.5 g/ha: 17.5 g ai/ha; for pest or weed control at 35 g/ha: 35 g ai/ha; for pest or weed control at 70 g/ha: 70 g ai/ha; for pest or weed control at 140 g/ha: 140 g ai/ha
In short: as §1

[3] = system: CIRAR: Canada thistle (Cirsium arvense); assay: Post-emergent herbicidal test, Canada thistle; conditions: post-emergence, 336 h, 14 days after application, read-out: Visual Growth Reduction (%) 14 Days After Application CIRAR; for pest or weed control at 17.5 g/ha: 17.5 g ai/ha; for pest or weed control at 35 g/ha: 35 g ai/ha; for pest or weed control at 70 g/ha: 70 g ai/ha; for pest or weed control at 140 g/ha: 140 g ai/ha
In short: as §1

[4] = system: EPHHL: wild poinsettia (Euphorbia heterophylla); assay: Post-emergent herbicidal test, wild poinsettia; conditions: post-emergence, 336 h, 14 days after application, read-out: Visual Growth Reduction (%) 14 Days After Application EPHHL; for pest or weed control at 17.5 g/ha: 17.5 g ai/ha; for pest or weed control at 35 g/ha: 35 g ai/ha; for pest or weed control at 70 g/ha: 70 g ai/ha; for pest or weed control at 140 g/ha: 140 g ai/ha
In short: as §1

[5] = system: IPOHE: ivyleaf morningglory (Ipomoea hederacea); assay: Post-emergent herbicidal test, ivyleaf morningglory; conditions: post-emergence, 336 h, 14 days after application, read-out: Visual Growth Reduction (%) 14 Days After Application IPOHE; for pest or weed control at 17.5 g/ha: 17.5 g ai/ha; for pest or weed control at 35 g/ha: 35 g ai/ha; for pest or weed control at 70 g/ha: 70 g ai/ha; for pest or weed control at 140 g/ha: 140 g ai/ha
In short: as §1

[6] = system: VIOTR: wild violet (Viola tricolor); assay: Post-emergent herbicidal test, wild violet; conditions: post-emergence, 336 h, 14 days after application, read-out: Visual Growth Reduction (%) 14 Days After Application VIOTR; for pest or weed control at 17.5 g/ha: 17.5 g ai/ha; for pest or weed control at 35 g/ha: 35 g ai/ha; for pest or weed control at 70 g/ha: 70 g ai/ha; for pest or weed control at 140 g/ha: 140 g ai/ha
In short: as §1

[7] = system: CYPES: yellow nutsedge (Cyperus esculentus); assay: Post-emergent herbicidal test, yellow nutsedge; conditions: post-emergence, 336 h, 14 days after application, read-out: Visual Growth Reduction (%) 14 Days After Application CYPES; for pest or weed control at 17.5 g/ha: 17.5 g ai/ha; for pest or weed control at 35 g/ha: 35 g ai/ha; for pest or weed control at 70 g/ha: 70 g ai/ha; for pest or weed control at 140 g/ha: 140 g ai/ha
In short: as §1

[8] = system: DIGSA: large crabgrass (Digitaria sanguinalis); assay: Post-emergent herbicidal test, large crabgrass; conditions: post-emergence, 336 h, 14 days after application, read-out: Visual Growth Reduction (%) 14 Days After Application DIGSA; for pest or weed control at 17.5 g/ha: 17.5 g ai/ha; for pest or weed control at 35 g/ha: 35 g ai/ha; for pest or weed control at 70 g/ha: 70 g ai/ha; for pest or weed control at 140 g/ha: 140 g ai/ha
In short: as §1

[9] = system: ECHCG: barnyardgrass (Echinochloa crus-galli); assay: Post-emergent herbicidal test, barnyardgrass; conditions: post-emergence, 336 h, 14 days after application, read-out: Visual Growth Reduction (%) 14 Days After Application ECHCG; for pest or weed control at 17.5 g/ha: 17.5 g ai/ha; for pest or weed control at 35 g/ha: 35 g ai/ha; for pest or weed control at 70 g/ha: 70 g ai/ha; for pest or weed control at 140 g/ha: 140 g ai/ha
In short: as §1

[10] = system: SETFA: giant foxtail (Setaria faberi); assay: Post-emergent herbicidal test, giant foxtail; conditions: post-emergence, 336 h, 14 days after application, read-out: Visual Growth Reduction (%) 14 Days After Application SETFA; for pest or weed control at 17.5 g/ha: 17.5 g ai/ha; for pest or weed control at 35 g/ha: 35 g ai/ha; for pest or weed control at 70 g/ha: 70 g ai/ha; for pest or weed control at 140 g/ha: 140 g ai/ha
In short: as §1

[11] = system: SORVU: shattercane (Sorghum bicolor); assay: Post-emergent herbicidal test, shattercane; conditions: post-emergence, 336 h, 14 days after application, read-out: Visual Growth Reduction (%) 14 Days After Application SORVU; for pest or weed control at 17.5 g/ha: 17.5 g ai/ha; for pest or weed control at 35 g/ha: 35 g ai/ha; for pest or weed control at 70 g/ha: 70 g ai/ha; for pest or weed control at 140 g/ha: 140 g ai/ha
In short: as §1

COC(=O)c1nc(-c2ccc(F)c3c2OC(F)(F)O3)c(F)c(N)c1Cl [Compound 7]
pest or weed control at 17.5 g/ha [1]: 50% | pest or weed control at 35 g/ha [1]: 70% | pest or weed control at 70 g/ha [1]: 75% | pest or weed control at 140 g/ha [1]: 85% | pest or weed control at 17.5 g/ha [2]: 50% | pest or weed control at 35 g/ha [2]: 60% | pest or weed control at 70 g/ha [2]: 80% | pest or weed control at 140 g/ha [2]: 85% | pest or weed control at 17.5 g/ha [3]: 60% | pest or weed control at 35 g/ha [3]: 70% | pest or weed control at 70 g/ha [3]: 75% | pest or weed control at 140 g/ha [3]: 80% | pest or weed control at 17.5 g/ha [4]: 0% | pest or weed control at 35 g/ha [4]: 0% | pest or weed control at 70 g/ha [4]: 10% | pest or weed control at 140 g/ha [4]: 20% | pest or weed control at 17.5 g/ha [5]: 0% | pest or weed control at 35 g/ha [5]: 0% | pest or weed control at 70 g/ha [5]: 0% | pest or weed control at 140 g/ha [5]: 0% | pest or weed control at 17.5 g/ha [6]: 5% | pest or weed control at 35 g/ha [6]: 10% | pest or weed control at 70 g/ha [6]: 40% | pest or weed control at 140 g/ha [6]: 50% | pest or weed control at 17.5 g/ha [7]: 0% | pest or weed control at 35 g/ha [7]: 10% | pest or weed control at 70 g/ha [7]: 30% | pest or weed control at 140 g/ha [7]: 40% | pest or weed control at 17.5 g/ha [8]: 0% | pest or weed control at 35 g/ha [8]: 0% | pest or weed control at 70 g/ha [8]: 0% | pest or weed control at 140 g/ha [8]: 0% | pest or weed control at 17.5 g/ha [9]: 0% | pest or weed control at 35 g/ha [9]: 0% | pest or weed control at 70 g/ha [9]: 0% | pest or weed control at 140 g/ha [9]: 0% | pest or weed control at 17.5 g/ha [10]: 0% | pest or weed control at 35 g/ha [10]: 0% | pest or weed control at 70 g/ha [10]: 0% | pest or weed control at 140 g/ha [10]: 10% | pest or weed control at 17.5 g/ha [11]: 0% | pest or weed control at 35 g/ha [11]: 0% | pest or weed control at 70 g/ha [11]: 0% | pest or weed control at 140 g/ha [11]: 0%

Nc1c(F)c(-c2ccc(F)c3c2OC(F)(F)O3)nc(C(=O)O)c1Cl [Compound 8]
pest or weed control at 17.5 g/ha [1]: 30% | pest or weed control at 35 g/ha [1]: 40% | pest or weed control at 70 g/ha [1]: 60% | pest or weed control at 140 g/ha [1]: 75% | pest or weed control at 17.5 g/ha [2]: 70% | pest or weed control at 35 g/ha [2]: 75% | pest or weed control at 70 g/ha [2]: 85% | pest or weed control at 140 g/ha [2]: 97% | pest or weed control at 17.5 g/ha [3]: 20% | pest or weed control at 35 g/ha [3]: 75% | pest or weed control at 70 g/ha [3]: 80% | pest or weed control at 140 g/ha [3]: 80% | pest or weed control at 17.5 g/ha [4]: 0% | pest or weed control at 35 g/ha [4]: 0% | pest or weed control at 70 g/ha [4]: 0% | pest or weed control at 140 g/ha [4]: 0% | pest or weed control at 17.5 g/ha [5]: 0% | pest or weed control at 35 g/ha [5]: 0% | pest or weed control at 70 g/ha [5]: 10% | pest or weed control at 140 g/ha [5]: 10% | pest or weed control at 17.5 g/ha [6]: 0% | pest or weed control at 35 g/ha [6]: 5% | pest or weed control at 70 g/ha [6]: 15% | pest or weed control at 140 g/ha [6]: 35% | pest or weed control at 17.5 g/ha [7]: 0% | pest or weed control at 35 g/ha [7]: 0% | pest or weed control at 70 g/ha [7]: 0% | pest or weed control at 140 g/ha [7]: 10% | pest or weed control at 17.5 g/ha [8]: 0% | pest or weed control at 35 g/ha [8]: 0% | pest or weed control at 70 g/ha [8]: 0% | pest or weed control at 140 g/ha [8]: 0% | pest or weed control at 17.5 g/ha [9]: 0% | pest or weed control at 35 g/ha [9]: 0% | pest or weed control at 70 g/ha [9]: 0% | pest or weed control at 140 g/ha [9]: 0% | pest or weed control at 17.5 g/ha [10]: 0% | pest or weed control at 35 g/ha [10]: 0% | pest or weed control at 70 g/ha [10]: 0% | pest or weed control at 140 g/ha [10]: 0% | pest or weed control at 17.5 g/ha [11]: 0% | pest or weed control at 35 g/ha [11]: 0% | pest or weed control at 70 g/ha [11]: 0% | pest or weed control at 140 g/ha [11]: 0%
